Test results published in paper PMC5325384, “Novel synthetic cyclic integrin αvβ3 binding peptide ALOS4: antitumor activity in mouse melanoma models” (Oncotarget, 2016).
Each block holds one molecule with its values, some of them ahead of it. Where a SMILES comes first, the peptide text is derived from it. Bridges are numbered along the chain shown (N, C = ends). Where no end group is shown, it is not given here. The star is where a group is joined. FITC = O=C1OC2(c3ccc(O)cc3Oc3cc(O)ccc32)c2ccc(NC(=S)*)cc21; GABA = NCCCC(=O)O

Assays:
[1] = Weight of non-inoculated mice under daily treatment; type: in vivo, mouse; settings: 16-week old C57BL/6, 0.3 mg/kg i.p. daily for 28 days; data not shown
[2] = test system: B16F10 mouse melanoma cells; test: Immunofluorescence microscopy of cell binding and uptake; type: cell-based; settings: 10 μM ALOS4-FITC, 37°C, confocal microscopy
Protocol: Poly-L-lysine (1 h, 37°C; cat# P8920, Sigma-Aldrich) coated slides (cat# PEZGS0816, Merck) were washed 2x with PBS (pH 7.4), 1.5×10^4 B16F10 cells per well were seeded in RPMI (10% FCS) and allowed to incubate overnight (37°C, 5% CO2). ALOS4-FITC (10 μM) was added to slide wells up to 60 min (37°C, 5% CO2), then cells were fixed in paraformaldehyde (4%, 10 min). Following PBS washes (2x) and removal of excess buffer, cells were stained with a mounting medium containing DAPI (cat# H-1500, Vector Laboratories, Burlingame, CA). Slides were imaged by confocal microscopy.

[3] = target: T1, integrin αvβ3 (Homo sapiens, UniProt P06756); test: fluorescence plate saturation binding assay
T1 chain 1: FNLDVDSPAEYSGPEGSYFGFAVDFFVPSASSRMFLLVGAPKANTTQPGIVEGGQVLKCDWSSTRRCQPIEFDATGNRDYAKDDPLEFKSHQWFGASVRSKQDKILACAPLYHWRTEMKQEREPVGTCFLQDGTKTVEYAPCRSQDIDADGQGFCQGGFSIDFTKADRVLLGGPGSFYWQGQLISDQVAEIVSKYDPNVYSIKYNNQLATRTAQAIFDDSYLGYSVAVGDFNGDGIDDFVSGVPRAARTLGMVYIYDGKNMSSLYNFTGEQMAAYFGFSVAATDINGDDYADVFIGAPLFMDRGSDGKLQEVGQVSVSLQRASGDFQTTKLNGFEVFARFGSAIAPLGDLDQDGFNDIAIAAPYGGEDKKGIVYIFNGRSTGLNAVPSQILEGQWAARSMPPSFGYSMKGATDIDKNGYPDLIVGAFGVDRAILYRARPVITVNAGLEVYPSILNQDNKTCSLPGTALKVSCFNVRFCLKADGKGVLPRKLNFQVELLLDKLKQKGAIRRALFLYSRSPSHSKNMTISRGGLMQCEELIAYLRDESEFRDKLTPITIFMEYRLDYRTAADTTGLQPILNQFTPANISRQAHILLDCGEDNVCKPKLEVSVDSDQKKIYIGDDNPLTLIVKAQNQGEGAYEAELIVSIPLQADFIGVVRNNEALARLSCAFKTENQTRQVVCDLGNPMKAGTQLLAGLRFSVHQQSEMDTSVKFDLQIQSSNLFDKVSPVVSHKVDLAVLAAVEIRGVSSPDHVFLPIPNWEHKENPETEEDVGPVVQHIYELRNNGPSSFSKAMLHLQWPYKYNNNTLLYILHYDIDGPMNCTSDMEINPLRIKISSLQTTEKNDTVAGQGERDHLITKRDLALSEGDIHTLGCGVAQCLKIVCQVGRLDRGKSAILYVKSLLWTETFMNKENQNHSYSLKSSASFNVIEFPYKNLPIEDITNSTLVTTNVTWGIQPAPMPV
T1 chain 2: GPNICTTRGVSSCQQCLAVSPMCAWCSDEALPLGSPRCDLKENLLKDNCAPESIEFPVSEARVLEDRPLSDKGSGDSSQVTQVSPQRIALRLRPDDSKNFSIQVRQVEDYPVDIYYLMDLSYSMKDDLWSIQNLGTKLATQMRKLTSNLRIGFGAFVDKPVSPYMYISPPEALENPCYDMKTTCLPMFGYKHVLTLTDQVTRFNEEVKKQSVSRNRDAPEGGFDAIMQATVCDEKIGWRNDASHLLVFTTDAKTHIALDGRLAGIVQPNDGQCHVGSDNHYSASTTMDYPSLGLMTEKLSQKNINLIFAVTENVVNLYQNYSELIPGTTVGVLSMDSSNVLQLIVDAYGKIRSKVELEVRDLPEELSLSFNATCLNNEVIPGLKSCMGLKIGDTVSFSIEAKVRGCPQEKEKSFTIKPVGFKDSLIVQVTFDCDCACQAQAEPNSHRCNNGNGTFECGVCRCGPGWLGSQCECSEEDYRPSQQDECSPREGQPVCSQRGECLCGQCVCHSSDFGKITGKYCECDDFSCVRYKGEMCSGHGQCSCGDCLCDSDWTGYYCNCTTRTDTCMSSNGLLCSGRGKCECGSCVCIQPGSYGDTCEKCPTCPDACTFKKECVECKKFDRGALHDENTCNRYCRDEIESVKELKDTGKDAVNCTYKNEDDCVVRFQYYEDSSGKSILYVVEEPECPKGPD

[4] = target: T1, integrin αvβ3; test: fluorescence competition binding assay with ALOS4-FITC

effect on animal weight, non-inoculated mice [1]: did not have any effect on animal weight
Molecule: CC(C)C[C@@H]1NC(=O)[C@H](CO)NC(=O)CNC(=O)[C@H](C)NC(=O)[C@H](CO)NC(=O)[C@H](CO)NC(=O)[C@@H](N)CSSC[C@@H](C(=O)O)NC(=O)[C@H](Cc2ccccc2)NC1=O [ALOS4] (H-CSSAGSLFC-OH; disulfide 1-9)

Molecule: CC(C)C[C@@H]1NC(=O)[C@H](CO)NC(=O)CNC(=O)[C@H](C)NC(=O)[C@H](CO)NC(=O)[C@H](CO)NC(=O)[C@@H](NC(=O)CCCNC(=S)Nc2ccc3c(c2)C(=O)OC32c3ccc(O)cc3Oc3cc(O)ccc32)CSSC[C@@H](C(=O)O)NC(=O)[C@H](Cc2ccccc2)NC1=O [ALOS4-FITC] ({FITC-GABA}-CSSAGSLFC-OH; disulfide 1-9)
association with cells, 10 min ([2]; 10 min): rapidly adheres to the cell surface
translocation into cells, 30 min ([2]; 30 min): appears to translocate quickly to the cell cytoplasm
intracellular localization, 60 min ([2]; up to 60 min): a majority of ALOS4-FITC migrated to the nuclear envelope and/or surrounding endoplasmic reticular membranes

Kd [3]: 192 nM
Molecule: {FITC-ε‑Acp}-CSSAGSLFC (disulfide 1-9 (inferred)) [ALOS4-FITC]

Kd [4]: 2550 nM
Molecule: CSSAGSLFC (disulfide 1-9 (inferred)) [ALOS4]
